Assay results published in the SangsterLogP compilation.
Blank lines part the entries; values can stand above or below the compound they belong to.

Assays:
[1] = method code SF-HPLC, from DOI: 10.1248/cpb.38.1906, PMID: 2268893; conditions: pH 6.9
[2] = method code SF-AS, from DOI: 10.1021/jm00291a017, PMID: 5140011
[3] = method code SF-FL, from DOI: 10.1016/0006-2952(96)00248-1, PMID: 8687500
[4] = not given; remark: listed apart in the source
[5] = method code SF, from DOI: 10.1016/s0960-894x(00)80094-3; conditions: pH 7.4
[6] = method code SF, from DOI: 10.1016/0041-008x(67)90079-8
[7] = method code SF-AS, from DOI: 10.1021/acs.jmedchem.5b00731, PMID: 26397825; conditions: pH 7.4
[8] = method code SF-AS, from DOI: 10.1021/jm00197a006, PMID: 533877
[9] = method code SF-AS, from DOI: 10.1093/oxfordjournals.jbchem.a131041, PMID: 939756; conditions: pH 7.4
[10] = not given; remark: listed apart in the source
[11] = method code SF-AS, from DOI: 10.1081/jlc-120022394
[12] = method code SF-AS, from PMID: 7149911; conditions: pH 8.9
[13] = method code SF-AS, from DOI: 10.1016/j.bmcl.2014.05.029, PMID: 24930836
[14] = method code SF-GR, from DOI: 10.1021/jm00219a024, PMID: 926124
[15] = method code SF-AS, from DOI: 10.1016/0891-5849(94)00112-w, PMID: 7744299; conditions: pH 7.5
[16] = method code SF-HPLC, from DOI: 10.1016/j.bmcl.2004.01.062, PMID: 15026043; conditions: pH 5.5
[17] = method code SF-HPLC, from DOI: 10.1016/j.nucmedbio.2010.03.011, PMID: 20610161; conditions: pH 7.4
[18] = method code SF-HPLC, from DOI: 10.1016/0378-5173(89)90133-6; conditions: pH 7.4
[19] = method code SF-AS, from Kosanovic, D.; Dumanovic, D.; Jovanovic, J. (1988). Solubility in octanol And the octanol-water partition coefficients of some 4(5)- and 5-nitroimidazoles. 53(10)559-563.
[20] = method code SF, from DOI: 10.1021/jm030399c, PMID: 14711317; conditions: pH 7.4
[21] = method code SF-AS, from Suikov, S.Yu.; Bondarenko, A.V.; Bogza, S.L.; Lutsyk, A.I. (2003). Distribution of 5-aminopyrazoles and 5-aminoisoxazoles in the octanol-water system. Ukr. Khim. Zh. (Russ. Ed.), 69(5/6)31-34.
[22] = method code SF-AS, from DOI: 10.1002/jps.2600671008, PMID: 702280; conditions: pH 7.0
[23] = method code SF-TN, from Korenman, I M.; Gurevich, N.; Kulagina, G. (1973). Extraction of certain n-alkylamines from aqueous solutions. Zh. Prikl. Khim., 46(3)726-728.
[24] = pH 7.4
[25] = not given; remark: listed apart in the source
[26] = from Wadhwa, L.; Chandiran, S.; Sharma, P. (2004). Alkyl esters of 6-methoxy-2-naphthylacetic acid as potential prodrugs - Synthesis, physicochemical properties, chemical stability and enzymatic …; conditions: pH 7.4
[27] = method code SF, from DOI: 10.1002/etc.5620130110
[28] = method code SF-TN, from DOI: 10.1085/jgp.71.1.93, PMID: 621494
[29] = method code SF-HPLC, from DOI: 10.1016/j.ejps.2013.10.002, PMID: 24161609
[30] = not given; remark: listed apart in the source
[31] = method code SF-AS, from DOI: 10.1016/0006-2952(90)90117-4, PMID: 2344368; conditions: pH 7.5
[32] = not given; remark: listed apart in the source
[33] = method code SF-GLC, from DOI: 10.1021/jo01265a071
[34] = not given; remark: listed apart in the source
[35] = method code SF-AS, from DOI: 10.2116/analsci.8.761; conditions: pH 6.0
[36] = method code SF, from DOI: 10.1177/00220345800590120501, PMID: 6941993
[37] = not given; remark: listed apart in the source
[38] = not given; remark: listed apart in the source

SMILES: S=C1CCCN1
logP [2]: -0.05

SMILES: O=[N+]([O-])c1cncnc1
logP: -0.05

SMILES: CCCC[N+](=O)[O-]
logP [4]: 1.38

SMILES: Clc1nc(Cl)c(Cl)c(Cl)c1Cl
logP [6]: 3.53

SMILES: CC(=O)C=NO
logP [8]: 0.39

SMILES: COC1=C(C2=C(OC)C(=O)c3cc4c(c(O)c3C2=O)C(=O)O[C@H](C)C4)C(=O)c2c(cc3c(c2O)C(=O)O[C@H](C)C3)C1=O
logD [9]: 0.37

SMILES: CN(N=O)C(N)=O
logD [12]: -0.4

SMILES: CCCNC(=O)NO
logP [14]: -0.22

SMILES: CN(C)C(=O)Oc1ccc(CC(NC(=O)C2N(S(=O)(=O)c3cnn(C)c3)CSC2(C)C)C(=O)OCCOc2ccccc2)cc1 (stereo not given)
logD [16]: 3.27

SMILES: O=[N+]([O-])c1ncn(CC(O)CF)n1 (stereo not given)
logD [17]: -0.46

SMILES: OC(Cn1ccnc1)c1ccc(CCc2ccccc2)cc1 (stereo not given)
logD [18]: 3.4

SMILES: Clc1ccccn1
logD [22]: 1.34

SMILES: CCCN
logP [23]: 0.28

SMILES: Cc1nnn[nH]1
logP [25]: -0.49

SMILES: COP(=O)(OC)C(O)C(Cl)(Cl)Cl (stereo not given)
logP [27]: 1.7

SMILES: CCCC(O)C(=O)O (stereo not given)
logP [28]: 0.45

SMILES: O=C(O)/C=C/C(=O)O
logP [29]: -0.04

SMILES: CNC(N)=S
logP [30]: -0.68

SMILES: CC(Cl)Cl
logP [32]: 1.82

SMILES: CCCCCl
logP [33]: 2.39

SMILES: Oc1nc(Cl)c(Cl)cc1Cl
logP [34]: 2.27

SMILES: OCc1cc(Br)cc(Br)c1O
logD [35]: 2.72

SMILES: C=COC(C)=O
logP [36]: 0.6

SMILES: O=[N+]([O-])/C=C1\NCCCS1
logP [37]: -0.4

SMILES: O=C(O)P(=O)(O)O
logP [38]: -2

Continued, values first:

logD [1]: 1.37
SMILES: CON=C(C(=O)NC1C(=O)N2C(C(=O)OCOC(=O)C(C)(C)C)=C(CN(C=O)C(C)=C3CCOC(=O)S3)CSC12)c1csc(N)n1 (stereo not given)

logP [3]: -2
SMILES: COc1cccc2c1C(=O)c1c(O)c3c(c(O)c1C2=O)CC(O)(C(C)=O)CC3OC1CC(NC(=O)OC2OC(C(=O)O)C(O)C(O)C2O)C(O)C(C)O1 (stereo not given)

logD [5]: -3.42
SMILES: C[C@@H]1CN(O)C(=O)[C@@H]1N

logD [7]: 2.54
SMILES: COCCOCCOCCOCCOCN(C)c1ccc(C=C2CC(=Cc3ccc(N(C)COCCOCCOCCOCCOC)cc3)C2=O)cc1

logP [3]: -0.74
SMILES: COc1cccc2c1C(=O)c1c(O)c3c(c(O)c1C2=O)CC(O)(C(=O)CO)CC3OC1CC(NC(=O)OCc2ccc(OC3OC(C(=O)O)C(O)C(O)C3O)c([N+](=O)[O-])c2)C(O)C(C)O1 (stereo not given)

logP [10]: 2.9
SMILES: CC(=O)O[C@H]1C(=O)[C@@]2(C)[C@H]([C@H](OC(=O)c3ccccc3)[C@]3(O)C[C@H](OC(=O)[C@H](O)Cc4ccccc4)C(C)=C1C3(C)C)[C@]1(OC(C)=O)CO[C@@H]1C[C@@H]2O

logP [11]: 2.22
SMILES: CCOC(=O)C(=Cc1ccc(OC)cc1)NC=O

logP [13]: 0.48
SMILES: Cc1cc(=O)oc2cc(OCC(O)Cn3nnc4ccccc43)cc(OCC(O)Cn3nnc4ccccc43)c12 (stereo not given)

logD [15]: 0.91
SMILES: CC(C)(C)N=O

logD [9]: 0.69
SMILES: COC1=C(C2=C(OC)C(=O)c3c4c(cc(OC)c3C2=O)CC(C)OC4=O)C(=O)c2c(OC)cc3c(c2C1=O)C(=O)OC(C)C3 (stereo not given)

logP [19]: 0.31
SMILES: Cc1ncc([N+](=O)[O-])n1C

logD [20]: 1.84
SMILES: O=C(NCCOCCNc1n[n+]([O-])c2ccccc2[n+]1[O-])c1cccc2cc3ccccc3nc12

logP [21]: 2.02
SMILES: Cc1noc(N)c1-c1ccccc1

logD [24]: 4.3
SMILES: CCCCC(OC(Cc1ccccc1)C(=O)N1CCC(OCOC)CC1)C(=O)NC(CC1CCCCC1)[C@@H](O)CC(C(=O)NCCCNC(C)=O)C(C)C (stereo not given in full)

logP [11]: 1.97
SMILES: CCOC(=O)C(=Cc1ccc(OC)c(OC)c1)NC=O

logD [26]: 4.75
SMILES: CCCCOC(=O)Cc1ccc2cc(OC)ccc2c1

logP [21]: 1.65
SMILES: Cc1c(-c2ccccc2)n[nH]c1N

logP [13]: 0.61
SMILES: Cc1cc2ncn(CC(O)COc3cc(OCC(O)Cn4cnc5cc(C)c(C)cc54)c4c(C)cc(=O)oc4c3)c2cc1C (stereo not given)

logD [26]: 3.04
SMILES: COC(=O)Cc1ccc2cc(OC)ccc2c1

logD [24]: 4.4
SMILES: CCCCC(OC(Cc1ccccc1)C(=O)N1CCC(OCOC)CC1)C(=O)NC(CC1CCCCC1)[C@@H](O)CC(C(=O)NCCCN/C(=N/C)NC#N)C(C)C (stereo not given in full)

logD [31]: 1.27
SMILES: COc1cccc2c1C(=O)c1c(O)c3c(c(O)c1C2=O)C[C@@](O)(C(=O)CO)C[C@@H]3O[C@H]1C[C@H](NC(C)=O)[C@H](O)[C@H](C)O1

logD [7]: 2.73
SMILES: COCCOCCOCCOCCOCN(C)c1ccc(C=C2CCC(=Cc3ccc(N(C)COCCOCCOCCOCCOC)cc3)C2=O)cc1

logD [31]: 1.56
SMILES: COc1cccc2c1C(=O)c1c(O)c3c(c(O)c1C2=O)CC(O)(CCO)CC3OC1CC(NC(C)=O)C(O)C(C)O1 (stereo not given)

logP [10]: 2.9
SMILES: CC(=O)O[C@H]1C(=O)[C@@]2(C)[C@H]([C@H](OC(=O)c3ccccc3)[C@]3(O)C[C@H](OC(=O)[C@@H](O)Cc4ccccc4)C(C)=C1C3(C)C)[C@]1(OC(C)=O)CO[C@@H]1C[C@@H]2O

logD [1]: 2.16
SMILES: CON=C(C(=O)NC1C(=O)N2C(C(=O)OCOC(=O)C(C)(C)C)=C(CN(C=O)C(C)=C(CCC(C)=O)SC(C)=O)CSC12)c1csc(N)n1 (stereo not given)
